# Biological target: S. aureus GyrB ATPase (Staphylococcus aureus, UniProt P0A0K8)
# Test: biochemical
# Details: compound at 1 μM; one value per test if tested more than once; read-out: % Inhibition of S. aureus GyrB ATPase
# Method in brief: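 IC50 values derive from 10-point titrations of compound (in DMSO). Phosphate formed from 250 μM ATP was quantified by acidic molybdate/malachite green after quenching.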
# Chain of S. aureus GyrB ATPase (P0A0K8 whole entry): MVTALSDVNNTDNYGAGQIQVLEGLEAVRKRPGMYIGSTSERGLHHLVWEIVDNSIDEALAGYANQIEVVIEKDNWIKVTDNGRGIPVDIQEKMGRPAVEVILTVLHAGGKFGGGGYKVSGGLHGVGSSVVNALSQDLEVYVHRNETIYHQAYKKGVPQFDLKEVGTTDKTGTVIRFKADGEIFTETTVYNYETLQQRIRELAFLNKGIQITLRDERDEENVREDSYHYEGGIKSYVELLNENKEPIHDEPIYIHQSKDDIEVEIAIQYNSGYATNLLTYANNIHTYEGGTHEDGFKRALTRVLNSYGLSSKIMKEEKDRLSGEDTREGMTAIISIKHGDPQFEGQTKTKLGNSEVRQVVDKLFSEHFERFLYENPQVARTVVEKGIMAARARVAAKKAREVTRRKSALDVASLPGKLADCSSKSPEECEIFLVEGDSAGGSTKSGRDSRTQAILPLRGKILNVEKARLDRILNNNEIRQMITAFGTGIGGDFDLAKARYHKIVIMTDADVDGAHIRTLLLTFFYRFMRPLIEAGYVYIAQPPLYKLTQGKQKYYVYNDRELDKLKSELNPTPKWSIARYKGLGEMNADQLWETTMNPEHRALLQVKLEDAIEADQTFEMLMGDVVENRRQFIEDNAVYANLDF
# Chain of S. aureus GyrB ATPase (P0AES4 whole entry, further chain): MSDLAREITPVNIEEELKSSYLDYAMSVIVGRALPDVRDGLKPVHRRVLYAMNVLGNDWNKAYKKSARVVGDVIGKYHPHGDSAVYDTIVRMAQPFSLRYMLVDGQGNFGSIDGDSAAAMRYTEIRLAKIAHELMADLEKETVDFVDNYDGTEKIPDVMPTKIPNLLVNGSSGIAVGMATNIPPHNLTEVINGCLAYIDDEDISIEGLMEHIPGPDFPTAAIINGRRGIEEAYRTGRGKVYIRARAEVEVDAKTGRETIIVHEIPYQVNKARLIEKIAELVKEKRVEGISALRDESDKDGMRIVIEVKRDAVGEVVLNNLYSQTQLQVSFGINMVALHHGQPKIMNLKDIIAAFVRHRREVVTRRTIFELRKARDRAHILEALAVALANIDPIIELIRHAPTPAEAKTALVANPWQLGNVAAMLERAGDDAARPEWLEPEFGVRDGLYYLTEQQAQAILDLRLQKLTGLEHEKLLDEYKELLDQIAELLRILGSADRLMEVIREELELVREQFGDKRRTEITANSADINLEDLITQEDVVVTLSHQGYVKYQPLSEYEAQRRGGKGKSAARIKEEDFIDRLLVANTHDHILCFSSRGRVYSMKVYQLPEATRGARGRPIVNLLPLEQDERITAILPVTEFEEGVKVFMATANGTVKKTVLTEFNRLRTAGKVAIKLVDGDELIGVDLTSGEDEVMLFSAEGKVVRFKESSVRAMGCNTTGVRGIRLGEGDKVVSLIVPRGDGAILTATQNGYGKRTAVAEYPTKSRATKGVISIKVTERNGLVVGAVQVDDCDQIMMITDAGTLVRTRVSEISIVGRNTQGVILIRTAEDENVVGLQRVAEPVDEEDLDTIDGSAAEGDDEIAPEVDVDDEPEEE
row,Compound,inhibition at 1 µM [%]
1,"CC(C)NC(=O)Nc1cc(-c2nc(C(F)(F)F)cs2)c(-c2ccc3c(c2)c(=O)c(C(=O)NCCO)cn3CCC2CCN(C)CC2)cn1 [Example 216, N-(2-hydroxyethyl)-6-(6-(3-isopropylureido)-4-(4-(trifluoromethyl)thiazol-2-yl)pyridin-3-yl)-1-(2-(1-methylpiperidin-4-yl)ethyl)-4-oxo-1,4-dihydroquinoline-3-carboxamide]",109
2,"CCCNC(=O)Nc1cc(-c2nc(C(F)(F)F)cs2)c(-c2ccc3c(c2)c(=O)c(C(=O)NCCN(C)C)cn3CCN(C)C)cn1 [Example 219, N,1-bis(2-(dimethylamino)ethyl)-4-oxo-6-(6-(3-propylureido)-4-(4-(trifluoromethyl)thiazol-2-yl)pyridin-3-yl)-1,4-dihydroquinoline-3-carboxamide]",86
3,CC(C)NC(=O)Nc1cc(-c2nc(C(F)(F)F)cs2)c(-c2ccc3c(c2)c(=O)c(C(=O)NCCN(C)C)cn3CCC2CCN(C)CC2)cn1 [Example 226],94
4,"CC(C)NC(=O)Nc1cc(-c2nc(C(F)(F)F)cs2)c(-c2ccc3c(c2)c(=O)c(C(=O)NCCN(C)C)cn3CCN2CCN(C)CC2)cn1 [Example 227, N-(2-(dimethylamino)ethyl)-6-(6-(3-isopropylureido)-4-(4-(trifluoromethyl)thiazol-2-yl)pyridin-3-yl)-1-(2-(4-methylpiperazin-1-yl)ethyl)-4-oxo-1,4-dihydroquinoline-3-carboxamide]",91
5,"CCCNC(=O)Nc1cc(-c2nc(C(F)(F)F)cs2)c(-c2ccc3c(c2)c(=O)c(C(=O)NCCN(C)C)cn3CCC2CCOCC2)cn1 [Example 232, N-(2-(dimethylamino)ethyl)-4-oxo-6-(6-(3-propylureido)-4-(4-(trifluoromethyl)thiazol-2-yl)pyridin-3-yl)-1-(2-(tetrahydro-2H-pyran-4-yl)ethyl)-1,4-dihydroquinoline-3-carboxamide]",98
6,"CCNC(=O)Nc1cc(-c2nc(C(F)(F)F)cs2)c(-c2ccc3c(c2)c(=O)c(C(=O)O)cn3C[C@@H]2CCN(CCN3CCOCC3)C2)cn1 [Example 237, (R)-6-(6-(3-ethylureido)-4-(4-(trifluoromethyl)thiazol-2-yl)pyridin-3-yl)-1-((1-(2-morpholinoethyl)pyrrolidin-3-yl)methyl)-4-oxo-1,4-dihydroquinoline-3-carboxylic acid]",103
7,"CCNC(=O)Nc1cc(-c2nc(C(F)(F)F)cs2)c(-c2ccc3c(c2)c(=O)c(C(=O)O)cn3C[C@H]2CCN(CCN3CCOCC3)C2)cn1 [Example 238, (S)-6-(6-(3-ethylureido)-4-(4-(trifluoromethyl)thiazol-2-yl)pyridin-3-yl)-1-((1-(2-morpholinoethyl)pyrrolidin-3-yl)methyl)-4-oxo-1,4-dihydroquinoline-3-carboxylic acid]",97
8,"CCNC(=O)Nc1cc(-c2nc(C(F)(F)F)cs2)c(-c2ccc3c(c2)c(=O)c(C(=O)O)cn3C[C@@H]2CCCNC2)cn1 [Example 242, (R)-1-((1-piperidin-3-yl)methyl)-6-(6-(3-ethylureido)-4-(4-(trifluoromethyl)thiazol-2-yl)pyridin-3-yl)-4-oxo-1,4-dihydroquinoline-3-carboxylic acid]",104
9,"CCNC(=O)Nc1cc(-c2nc(C(F)(F)F)cs2)c(-c2ccc3c(c2)c(=O)c(C(=O)O)cn3C[C@H]2CCNC2)cn1 [Example 243, (S)-6-(6-(3-ethylureido)-4-(4-(trifluoromethyl)thiazol-2-yl)pyridin-3-yl)-4-oxo-1-(pyrrolidin-3-ylmethyl)-1,4-dihydroquinoline-3-carboxylic acid]",116
10,"CCNC(=O)Nc1cc(-c2nc(C(F)(F)F)cs2)c(-c2ccc3c(c2)c(=O)c(C(=O)O)cn3[C@@H]2CCNC2)cn1 [Example 244, (R)-6-(6-(3-ethylureido)-4-(4-(trifluoromethyl)thiazol-2-yl)pyridin-3-yl)-4-oxo-1-(pyrrolidin-3-yl)-1,4-dihydroquinoline-3-carboxylic acid]",111
11,"CCNC(=O)Nc1cc(-c2nc(C(F)(F)F)cs2)c(-c2ccc3c(c2)c(=O)c(C(=O)O)cn3[C@H]2CCCNC2)cn1 [Example 245, (S)-6-(6-(3-ethylureido)-4-(4-(trifluoromethyl)thiazol-2-yl)pyridin-3-yl)-4-oxo-1-(piperidin-3-yl)-1,4-dihydroquinoline-3-carboxylic acid]",105
12,"CCNC(=O)Nc1cc(-c2nc(C(F)(F)F)cs2)c(-c2ccc3c(c2)c(=O)c(C(=O)O)cn3[C@@H]2CCN(C)C2)cn1 [Example 246, (R)-6-(6-(3-ethylureido)-4-(4-(trifluoromethyl)thiazol-2-yl)pyridin-3-yl)-1-(1-methylpyrrolidin-3-yl)-4-oxo-1,4-dihydroquinoline-3-carboxylic acid]",104
13,"CCNC(=O)Nc1cc(-c2nc(C(F)(F)F)cs2)c(-c2ccc3c(c2)c(=O)c(C(=O)O)cn3C[C@@H]2CCCN(C)C2)cn1 [Example 247, (R)-6-(6-(3-ethylureido)-4-(4-(trifluoromethyl)thiazol-2-yl)pyridin-3-yl)-1-((1-methylpiperidin-3-yl)methyl)-4-oxo-1,4-dihydroquinoline-3-carboxylic acid]",115
14,"CCNC(=O)Nc1cc(-c2nc(C(F)(F)F)cs2)c(-c2ccc3c(c2)c(=O)c(C(=O)O)cn3[C@H]2CCCN(C)C2)cn1 [Example 248, (S)-6-(6-(3-ethylureido)-4-(4-(trifluoromethyl)thiazol-2-yl)pyridin-3-yl)-1-(1-methylpiperidin-3-yl)-4-oxo-1,4-dihydroquinoline-3-carboxylic acid]",103
15,"CCNC(=O)Nc1cc(-c2nc(C(F)(F)F)cs2)c(-c2ccc3c(c2)c(=O)c(C(=O)O)cn3C[C@H]2CCN(CC)C2)cn1 [Example 249, (S)-1-((1-ethylpyrrolidin-3-yl)methyl)-6-(6-(3-ethylureido)-4-(4-(trifluoromethyl)thiazol-2-yl)pyridin-3-yl)-4-oxo-1,4-dihydroquinoline-3-carboxylic acid]",113
16,"CCNC(=O)Nc1cc(-c2nc(C(F)(F)F)cs2)c(-c2ccc3c(c2)c(=O)c(C(=O)O)cn3[C@@H]2CCN(CC)C2)cn1 [Example 250, (R)-1-(1-ethylpyrrolidin-3-yl)-6-(6-(3-ethylureido)-4-(4-(trifluoromethyl)thiazol-2-yl)pyridin-3-yl)-4-oxo-1,4-dihydroquinoline-3-carboxylic acid]",112
17,"CCNC(=O)Nc1cc(-c2nc(C(F)(F)F)cs2)c(-c2ccc3c(c2)c(=O)c(C(=O)O)cn3C[C@@H]2CCCN(CC)C2)cn1 [Example 251, (R)-1-((1-ethylpiperidin-3-yl)methyl)-6-(6-(3-ethylureido)-4-(4-(trifluoromethyl)thiazol-2-yl)pyridin-3-yl)-4-oxo-1,4-dihydroquinoline-3-carboxylic acid]",113
18,"CCNC(=O)Nc1cc(-c2nc(C(F)(F)F)cs2)c(-c2ccc3c(c2)c(=O)c(C(=O)O)cn3[C@@H]2CCCN(CC)C2)cn1 [Example 252, (R)-1-(1-ethylpiperidin-3-yl)-6-(6-(3-ethylureido)-4-(4-(trifluoromethyl)thiazol-2-yl)pyridin-3-yl)-4-oxo-1,4-dihydroquinoline-3-carboxylic acid]",105
